Reference: ChEMBL document CHEMBL3352461, “Discovery and optimization of 5-fluoro-4,6-dialkoxypyrimidine GPR119 agonists” (Bioorg Med Chem Lett, 2014)
Each block holds one compound with its values, some of them ahead of it. The source made the active and inactive calls. The calls are words filed in the database; no cut-off is given here.

Columns and labels:
[1] = molecular target: T1, Glucose-dependent insulinotropic receptor (Rattus norvegicus, UniProt Q7TQN8); assay: […] of rat GPR119 activity by homogeneous time resolved fluorescence cyclase (cAMP) assay; format: functional
T1 sequence (Q7TQN8 whole entry): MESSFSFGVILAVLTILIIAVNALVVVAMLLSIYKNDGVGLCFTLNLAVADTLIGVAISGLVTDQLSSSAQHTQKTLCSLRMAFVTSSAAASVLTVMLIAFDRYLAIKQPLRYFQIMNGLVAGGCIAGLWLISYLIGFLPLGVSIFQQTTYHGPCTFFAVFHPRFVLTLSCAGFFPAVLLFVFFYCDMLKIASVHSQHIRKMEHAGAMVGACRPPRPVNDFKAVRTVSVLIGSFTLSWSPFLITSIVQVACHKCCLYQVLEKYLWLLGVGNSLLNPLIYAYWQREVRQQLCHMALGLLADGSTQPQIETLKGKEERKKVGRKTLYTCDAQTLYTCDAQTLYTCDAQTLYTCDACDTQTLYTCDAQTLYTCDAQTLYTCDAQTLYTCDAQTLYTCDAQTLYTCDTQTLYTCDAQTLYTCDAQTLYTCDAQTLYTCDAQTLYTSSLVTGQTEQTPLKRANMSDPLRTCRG

Cytochrome P450 2C19 = Cytochrome P450 2C19 (Homo sapiens, UniProt P33261); assay: Inhibition of CYP2C19 (unknown origin); format: ADME
[2] = molecular target: T2, Glucose-dependent insulinotropic receptor (Rattus norvegicus) (UniProt Q7TQN8); assay: […] of rat GPR119 activity by homogeneous time resolved fluorescence cyclase (cAMP) assay relative to AR231453; format: functional
T2 sequence (whole entry): T1 sequence (Q7TQN8 whole entry)

[3] = Stability in human hepatocytes assessed as compound remaining after 90 mins; format: ADME, cell-based, Hepatocyte; details: read-out: Stability
[4] = Stability in dog hepatocytes assessed as compound remaining after 90 mins; format: ADME, cell-based, Canis lupus familiaris, Hepatocyte; details: read-out: Stability
Cytochrome P450 3A4 = Cytochrome P450 3A4 (Homo sapiens, UniProt P08684); assay: Inhibition of CYP3A4 (unknown origin); format: ADME
[5] = Stability in rat hepatocytes assessed as compound remaining after 90 mins; format: ADME, cell-based, Hepatocyte; details: read-out: Stability
Rattus norvegicus [6] = assay: Clearance in Sprague-Dawley rat at 2 mg/kg, iv and po; format: ADME, organism-based; parameters: dose 2 mg/kg, route oral; details: in vivo
[7] = molecular target: T3, Glucose-dependent insulinotropic receptor (Homo sapiens) (UniProt Q8TDV5); assay: […] of human GPR119 activity by homogeneous time resolved fluorescence cyclase (cAMP) assay relative to AR231453; format: functional
T3 sequence (whole entry): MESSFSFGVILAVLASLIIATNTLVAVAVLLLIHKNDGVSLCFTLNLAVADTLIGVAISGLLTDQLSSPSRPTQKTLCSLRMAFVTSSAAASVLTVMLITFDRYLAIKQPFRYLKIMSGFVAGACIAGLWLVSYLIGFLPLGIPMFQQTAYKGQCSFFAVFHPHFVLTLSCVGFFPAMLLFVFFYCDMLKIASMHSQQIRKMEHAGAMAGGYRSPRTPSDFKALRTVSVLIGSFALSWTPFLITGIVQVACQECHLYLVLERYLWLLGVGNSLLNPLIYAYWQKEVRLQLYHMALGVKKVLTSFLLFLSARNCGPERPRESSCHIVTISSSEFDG

[8] = Efflux ratio of permeability in human Caco2 cells; format: ADME, cell-based; details: Caco-2
[9] = molecular target: T4, Glucose-dependent insulinotropic receptor (Homo sapiens, UniProt Q8TDV5); assay: […] of human GPR119 activity by homogeneous time resolved fluorescence cyclase (cAMP) assay; format: functional
T4 sequence (Q8TDV5 whole entry): T3 sequence (whole entry)

Rattus norvegicus [10] = assay: Bioavailability in Sprague-Dawley rat at 2 mg/kg, iv and po; format: ADME, organism-based; details: in vivo
[11] = Elimination half life in Sprague-Dawley rat at 2 mg/kg, po; format: ADME, organism-based; parameters: dose 2 mg/kg, route oral; details: in vivo, read-out: beta t1/2 (converted)
Cytochrome P450 1A2 = molecular target: T5, Cytochrome P450 1A2 (Homo sapiens, UniProt P05177); assay: Inhibition of CYP1A2 (unknown origin); format: ADME
T5 sequence (P05177 whole entry): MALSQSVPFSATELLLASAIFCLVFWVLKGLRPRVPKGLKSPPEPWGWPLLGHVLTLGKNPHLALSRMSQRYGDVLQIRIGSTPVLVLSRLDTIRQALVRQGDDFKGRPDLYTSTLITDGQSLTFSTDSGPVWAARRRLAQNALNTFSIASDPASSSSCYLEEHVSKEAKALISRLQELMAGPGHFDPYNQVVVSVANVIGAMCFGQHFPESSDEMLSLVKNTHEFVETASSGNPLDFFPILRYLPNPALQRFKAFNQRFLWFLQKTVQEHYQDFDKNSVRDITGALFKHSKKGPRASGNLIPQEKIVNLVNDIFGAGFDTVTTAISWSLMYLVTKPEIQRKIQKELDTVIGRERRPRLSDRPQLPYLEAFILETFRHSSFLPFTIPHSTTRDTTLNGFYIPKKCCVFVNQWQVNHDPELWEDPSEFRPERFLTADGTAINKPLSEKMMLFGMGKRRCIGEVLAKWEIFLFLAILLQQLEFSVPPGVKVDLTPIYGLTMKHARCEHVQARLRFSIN

Rattus norvegicus [12] = assay: AUClast in Sprague-Dawley rat at 2 mg/kg, iv and po; format: ADME, organism-based, Plasma; parameters: dose 2 mg/kg, route oral; details: in vivo
[13] = Stability in monkey hepatocytes assessed as compound remaining after 90 mins; format: ADME, cell-based, Macaca mulatta, Hepatocyte; details: rhesus monkey, read-out: Stability
Cytochrome P450 2C9 = Cytochrome P450 2C9 (Homo sapiens, UniProt P11712); assay: Inhibition of CYP2C9 (unknown origin); format: ADME
Rattus norvegicus [14] = assay: Volume of distribution at steady state in Sprague-Dawley rat at 2 mg/kg, iv and po; format: ADME, organism-based; parameters: dose 2 mg/kg, route oral; details: in vivo
Rattus norvegicus [15] = assay: Reduction in plasma glucose level in Zucker diabetic fatty rat at 10 to 30 mg/kg, po administered 30 mins prior to challenge measured in 20 mins interval for 120 mins by oral glucose tolerance test relative to vehicle-treated control; format: functional; parameters: scale not given: the % may be the effect or the level left; details: dose mg/kg 10-30
CYP2C9 = CYP2C9 (Homo sapiens, UniProt P11712); assay: Ratio of APD597 IC50 to compound IC50 for CYP2C9 (unknown origin); format: ADME; details: read-out: Ratio IC50
Rattus norvegicus [16] = assay: Reduction in plasma glucose level in Zucker diabetic fatty rat at 10 to 30 mg/kg, po administered 30 mins prior to challenge measured in 20 mins interval for 120 mins by oral glucose tolerance test relative to vehicle-treated control in presence of sitagliptin; format: functional; parameters: scale not given: the % may be the effect or the level left; details: dose mg/kg 10-30
Mus musculus [17] = assay: Reduction in plasma glucose level in normoglycemic 129SVE mouse at 3 to 10 mg/kg, po administered 30 mins prior to challenge measured in 20 mins interval for 120 mins by oral glucose tolerance test relative to vehicle-treated control; format: functional; parameters: scale not given: the % may be the effect or the level left; details: dose mg/kg 3-10
Mus musculus [18] = assay: Increase in GIP release in normoglycemic 129SVE mouse at 3 to 10 mg/kg, po measured after 45 mins; format: functional, organism-based
Cytochrome P450 2D6 = Cytochrome P450 2D6 (Homo sapiens, UniProt P10635); assay: Inhibition of CYP2D6 (unknown origin); format: ADME
Rattus norvegicus [19] = assay: Reduction in plasma glucose level in Zucker diabetic fatty rat at 3 mg/kg, po administered 30 mins prior to challenge measured in 20 mins interval for 120 mins by oral glucose tolerance test relative to vehicle-treated control; format: functional; parameters: scale not given: the % may be the effect or the level left

Chain of CYP2C9 (P11712 whole entry): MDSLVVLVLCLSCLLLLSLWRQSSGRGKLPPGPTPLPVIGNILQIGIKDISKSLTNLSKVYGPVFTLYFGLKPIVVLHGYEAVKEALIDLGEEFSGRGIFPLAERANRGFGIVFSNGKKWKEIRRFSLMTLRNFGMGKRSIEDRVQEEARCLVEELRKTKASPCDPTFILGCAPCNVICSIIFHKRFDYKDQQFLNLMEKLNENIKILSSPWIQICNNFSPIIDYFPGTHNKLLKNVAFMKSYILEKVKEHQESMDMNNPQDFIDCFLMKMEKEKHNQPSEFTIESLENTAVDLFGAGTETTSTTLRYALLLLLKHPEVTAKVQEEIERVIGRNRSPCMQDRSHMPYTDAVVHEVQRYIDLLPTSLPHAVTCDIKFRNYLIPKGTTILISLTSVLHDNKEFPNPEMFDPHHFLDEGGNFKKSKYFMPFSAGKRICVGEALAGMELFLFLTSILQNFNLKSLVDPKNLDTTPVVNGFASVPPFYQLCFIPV
Chain of Cytochrome P450 2C9 (P11712 whole entry): as above
Chain of Cytochrome P450 3A4 (P08684 whole entry): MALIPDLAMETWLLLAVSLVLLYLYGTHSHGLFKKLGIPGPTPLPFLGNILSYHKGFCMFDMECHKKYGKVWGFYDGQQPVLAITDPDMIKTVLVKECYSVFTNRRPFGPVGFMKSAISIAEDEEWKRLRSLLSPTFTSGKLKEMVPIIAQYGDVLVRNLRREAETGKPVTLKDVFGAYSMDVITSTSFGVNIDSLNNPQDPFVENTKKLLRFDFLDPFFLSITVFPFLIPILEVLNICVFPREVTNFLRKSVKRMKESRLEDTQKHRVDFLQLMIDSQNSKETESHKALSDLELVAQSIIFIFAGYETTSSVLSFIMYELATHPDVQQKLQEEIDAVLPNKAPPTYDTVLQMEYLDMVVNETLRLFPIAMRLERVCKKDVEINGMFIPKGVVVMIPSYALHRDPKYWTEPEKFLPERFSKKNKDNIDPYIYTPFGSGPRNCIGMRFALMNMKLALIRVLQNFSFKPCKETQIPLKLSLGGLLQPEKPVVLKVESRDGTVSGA
Chain of Cytochrome P450 2C19 (P33261 whole entry): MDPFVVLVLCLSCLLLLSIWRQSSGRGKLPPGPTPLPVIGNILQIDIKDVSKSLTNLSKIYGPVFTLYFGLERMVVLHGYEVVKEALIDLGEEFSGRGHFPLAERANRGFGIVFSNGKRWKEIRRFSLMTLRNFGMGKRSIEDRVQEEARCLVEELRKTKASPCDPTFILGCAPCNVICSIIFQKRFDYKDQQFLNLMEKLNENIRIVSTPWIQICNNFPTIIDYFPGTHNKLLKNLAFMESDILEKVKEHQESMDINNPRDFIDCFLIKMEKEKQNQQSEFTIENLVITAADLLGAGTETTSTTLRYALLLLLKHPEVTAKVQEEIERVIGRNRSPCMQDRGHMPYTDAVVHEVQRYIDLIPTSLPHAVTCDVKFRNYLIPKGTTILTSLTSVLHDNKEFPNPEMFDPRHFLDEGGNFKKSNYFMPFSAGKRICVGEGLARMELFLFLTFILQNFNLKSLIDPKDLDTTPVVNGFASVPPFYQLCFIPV
Chain of Cytochrome P450 2D6 (P10635 whole entry): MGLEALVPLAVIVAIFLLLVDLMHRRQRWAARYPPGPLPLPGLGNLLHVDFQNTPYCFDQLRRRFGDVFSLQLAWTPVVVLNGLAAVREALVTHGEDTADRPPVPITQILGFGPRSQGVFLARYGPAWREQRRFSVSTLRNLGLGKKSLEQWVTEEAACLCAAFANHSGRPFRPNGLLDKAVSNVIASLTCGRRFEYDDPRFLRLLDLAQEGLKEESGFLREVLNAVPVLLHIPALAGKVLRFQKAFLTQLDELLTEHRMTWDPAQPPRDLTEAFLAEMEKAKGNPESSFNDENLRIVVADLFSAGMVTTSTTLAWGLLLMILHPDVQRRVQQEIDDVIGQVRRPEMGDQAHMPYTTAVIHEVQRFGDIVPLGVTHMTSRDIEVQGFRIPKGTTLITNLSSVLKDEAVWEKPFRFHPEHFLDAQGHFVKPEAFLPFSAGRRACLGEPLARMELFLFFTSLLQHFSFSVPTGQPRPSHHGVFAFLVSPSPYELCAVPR

EC50 [1]: 0.169 µM | IC50 (Cytochrome P450 2C19): 23.4 µM | Efficacy [2]: 93% | remaining at 1.5 h [3]: 100% | remaining at 1.5 h [4]: 89% | inhibition (INH) (Cytochrome P450 3A4): Not Active | remaining at 1.5 h [5]: 51% | CL (Rattus norvegicus [6]): 1.19 L/h/kg | Efficacy [7]: 94% | efflux ratio [8]: 1 | EC50 [9]: 0.0138 µM | F (Rattus norvegicus [10]): 72.7% | half-life [11]: 2.71 h | inhibition (INH) (Cytochrome P450 1A2): Not Active | AUClast (Rattus norvegicus [12]): 1.22 µg·h/mL | remaining at 1.5 h [13]: 50% | IC50 (Cytochrome P450 2C9): 25.7 µM | Vdss (Rattus norvegicus [14]): 2.91 L/kg | inhibition (INH) (Cytochrome P450 2D6): Not Active
Compound: Cc1nc(S(C)(=O)=O)ccc1Oc1ncnc(OC2CCN(C(=O)OC3(C)CC3)CC2)c1F
Activity (Rattus norvegicus [15]): 50% | selectivity ratio (CYP2C9): 4 | Activity (Rattus norvegicus [16]): 70% | Activity (Mus musculus [17]): 35% | Activity (Mus musculus [18]): Active

Compound: N[C@@H](CC(=O)N1CCn2c(nnc2C(F)(F)F)C1)Cc1cc(F)c(F)cc1F [SITAGLIPTIN]
Activity (Rattus norvegicus [19]): 70%
